Experimental findings from ChEMBL document CHEMBL1201862, “PubChem BioAssay data set” (2004) are described below.

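Each compound was tested at five concentrations against cells in 96-well plates for 48 hours. The concentration for 50% growth inhibition is given as GI50.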 The source made the active and inactive calls. Cut-off read from the data, not from the text of the source: active = GI50 up to about 1.1 µM and inactive = higher.

Test systems include EKVX; HT-29; BT-549; U-251; CCRF-CEM; K562; COLO 205; TK-10; UO-31; OVCAR-3; KM12; SF-295; OVCAR-4; HOP-92; 786-0; HOP-62; SN12C; MDA-N; T47D.
What all share (assay): NCI anticancer screen, dose series, 48 h

For the compound `CCOC(=O)CCC(C(=O)OCC)n1nc2ccc(Nc3c(C)[n+]([O-])c4cc(F)c(OCC)cc4[n+]3[O-])cc2n1` (stereo not given), the GI50 in the assay with EKVX was 28.5 µM (inactive); with HT-29, > 100 µM (inactive); in the assay on BT-549 it was 34 µM (inactive); with U-251, 23.6 µM (inactive); in the assay with CCRF-CEM, > 100 µM (inactive); in the assay on K562, > 100 µM (inactive). Further, the GI50 in the assay on COLO 205 was > 100 µM (inactive); in the assay with TK-10, 42.7 µM (inactive); in the assay on UO-31, 52.4 µM (inactive); in the assay on OVCAR-3, > 100 µM (inactive); with KM12, > 100 µM (inactive); in the assay on SF-295 it was 36.1 µM (inactive). Besides, the GI50 in the assay with OVCAR-4 was 47.6 µM (inactive); in the assay with HOP-92, 21.4 µM (inactive); with 786-0, 25.3 µM (inactive); with HOP-62, 17.5 µM (inactive); with SN12C, 91.2 µM (inactive); in the assay with MDA-N it was > 100 µM (inactive). Further, in the assay on T47D, the GI50 was 66.1 µM (inactive).
Regarding `O=[N+]([O-])c1ccc(-c2cc(O)c3nc4ccccc4n3c2)cc1`, the GI50 was > 100 µM (inactive) with EKVX; > 100 µM (inactive) with HT-29; > 100 µM (inactive) in the assay with BT-549; 28.1 µM (inactive) in the assay on U-251; > 100 µM (inactive) in the assay with CCRF-CEM; > 100 µM (inactive) with K562. Besides, the GI50 was > 100 µM (inactive) with COLO 205; > 100 µM (inactive) in the assay on TK-10; > 91.4 µM (inactive) in the assay with UO-31; > 100 µM (inactive) with OVCAR-3; > 100 µM (inactive) with KM12; > 100 µM (inactive) with SF-295. Also, the GI50 in the assay with OVCAR-4 was > 100 µM (inactive); with HOP-92, > 65.9 µM (inactive); in the assay with 786-0, > 90.6 µM (inactive); in the assay with HOP-62 it was 28.6 µM (inactive); with SN12C, > 100 µM (inactive); in the assay with MDA-N it was > 100 µM (inactive). Moreover, the GI50 with T47D is 74 µM (inactive).
`COc1cc(N(CCC#N)CCC#N)ccc1C(/N=N/c1cccc([N+](=O)[O-])c1)=N\NC(=O)c1ccc(C)cc1`: the GI50 was 10.4 µM (inactive) in the assay on EKVX; 92 µM (inactive) in the assay with HT-29; 22 µM (inactive) with BT-549; > 100 µM (inactive) in the assay with U-251; 20.6 µM (inactive) in the assay with CCRF-CEM; 73.5 µM (inactive) with K562. Besides, the GI50 was > 100 µM (inactive) in the assay with COLO 205; 31.7 µM (inactive) in the assay on TK-10; 71 µM (inactive) in the assay with UO-31; 96.8 µM (inactive) in the assay with OVCAR-3; > 100 µM (inactive) in the assay on KM12; > 100 µM (inactive) with SF-295. In addition, the GI50 in the assay on OVCAR-4 is 53.7 µM (inactive); in the assay on HOP-92 it was 33.9 µM (inactive); in the assay with 786-0, > 100 µM (inactive); in the assay on HOP-62 it was > 100 µM (inactive); in the assay on SN12C, > 100 µM (inactive); in the assay with MDA-N, 84.5 µM (inactive). Also, the GI50 with T47D was 27.8 µM (inactive).
Regarding `CCOC(=O)COc1c(OC)cc(C2C3=C(COC3=O)Oc3cc4c(cc32)OCO4)cc1OC` (stereo not given), the GI50 in the assay with EKVX was 4.02 µM (inactive); with HT-29, 0.927 µM (active); in the assay on BT-549, 21.9 µM (inactive); in the assay on U-251, 0.499 µM (active); in the assay with CCRF-CEM, 0.229 µM (active); in the assay with K562 it was 0.155 µM (active). Besides, the GI50 in the assay with COLO 205 is 0.991 µM (active); in the assay with TK-10 it was 6.18 µM (inactive); with UO-31, 13.4 µM (inactive); in the assay on OVCAR-3, 0.528 µM (active); in the assay with KM12, 0.304 µM (active); in the assay on SF-295, 0.9 µM (active). The GI50 with OVCAR-4 is 2.46 µM (inactive); in the assay with HOP-92 it was 14.6 µM (inactive); with 786-0, 2.77 µM (inactive); in the assay on HOP-62, 2.16 µM (inactive); with SN12C it was 1.72 µM (inactive); with MDA-N, 0.384 µM (active). The GI50 with T47D is 2.54 µM (inactive).
Consider `O=P(O)(O)CCP(=O)(O)O`, for which the GI50 in the assay on EKVX, in the assay with HT-29, with BT-549, in the assay on U-251, in the assay with CCRF-CEM and in the assay with K562 was > 100 µM (inactive) throughout. Moreover, the GI50 in the assay with COLO 205, in the assay with TK-10, in the assay on UO-31, in the assay with OVCAR-3, in the assay on KM12 and in the assay on SF-295 was > 100 µM (inactive) in each case. Moreover, the GI50 in the assay on OVCAR-4, in the assay with HOP-92, in the assay with 786-0, with HOP-62, in the assay with SN12C and in the assay on MDA-N was > 100 µM (inactive) in each case. In addition, the GI50 in the assay on T47D was > 100 µM (inactive).
Regarding `COC(=O)[C@H](C)NC(=O)[C@H](CSC)N1C(=O)N[C@@H](C(C)C)C1=O`, the GI50 in the assay with EKVX is > 100 µM (inactive); in the assay with HT-29 it was > 100 µM (inactive); in the assay with BT-549, > 100 µM (inactive); in the assay with U-251, > 100 µM (inactive); in the assay on CCRF-CEM, 29.6 µM (inactive); in the assay on K562, 85.5 µM (inactive). Further, the GI50 in the assay with COLO 205, with TK-10, in the assay with UO-31, with OVCAR-3, in the assay with KM12 and in the assay with SF-295 was > 100 µM (inactive) each time. Besides, the GI50 in the assay on OVCAR-4, in the assay with HOP-92, in the assay on 786-0, in the assay with HOP-62, in the assay on SN12C and in the assay on MDA-N was > 100 µM (inactive) throughout. For the same compound, the GI50 in the assay with T47D was > 100 µM (inactive).
Turning to `O=C(Nc1ccccc1)N(CCCCN(Cc1ccccc1)C(=O)Nc1ccccc1)Cc1ccccc1`, the GI50 is 72.3 µM (inactive) in the assay on EKVX; 74.5 µM (inactive) in the assay on HT-29; > 100 µM (inactive) in the assay with BT-549; > 100 µM (inactive) with U-251; > 100 µM (inactive) with CCRF-CEM; 30.8 µM (inactive) in the assay with K562. Besides, the GI50 was > 100 µM (inactive) in the assay with COLO 205; > 100 µM (inactive) in the assay with TK-10; 40 µM (inactive) in the assay on UO-31; > 100 µM (inactive) in the assay with OVCAR-3; > 100 µM (inactive) in the assay with KM12; > 100 µM (inactive) in the assay on SF-295. The GI50 in the assay on OVCAR-4 is 75.5 µM (inactive); with HOP-92 it was > 100 µM (inactive); with 786-0, 95.3 µM (inactive); with HOP-62, > 100 µM (inactive); in the assay on SN12C, > 100 µM (inactive); with MDA-N, > 100 µM (inactive). The GI50 with T47D is 25.9 µM (inactive).
Regarding `CN(C)c1ccc(C=C2N=C(c3ccccc3)N(c3cc(C(=O)c4ccccc4)ccc3N3C(=O)/C(=C/c4ccc(N(C)C)cc4)N=C3c3ccccc3)C2=O)cc1`, the GI50 in the assay on EKVX is 20.5 µM (inactive); in the assay on HT-29, 4.28 µM (inactive); with BT-549, 28.3 µM (inactive); in the assay on U-251 it was 3.67 µM (inactive); with CCRF-CEM, 3.49 µM (inactive); with K562, 3.95 µM (inactive). The GI50 in the assay on COLO 205 is 3.74 µM (inactive); with TK-10, 23.8 µM (inactive); in the assay on UO-31, 15.8 µM (inactive); in the assay with OVCAR-3, 2.12 µM (inactive); with KM12, 3.71 µM (inactive); in the assay on SF-295, 3.76 µM (inactive). Besides, the GI50 was 7.21 µM (inactive) in the assay with OVCAR-4; > 100 µM (inactive) in the assay on HOP-92; 6.17 µM (inactive) with 786-0; 20.7 µM (inactive) in the assay with HOP-62; 58.7 µM (inactive) in the assay with SN12C; 2.16 µM (inactive) with MDA-N. Moreover, the GI50 with T47D was 5.65 µM (inactive).
Turning to `c1ccc2c(c1)CCc1[nH]c3c(c1-2)-c1ccccc1CC3`, the GI50 in the assay on EKVX is > 100 µM (inactive); with HT-29 it was 32.3 µM (inactive); in the assay with BT-549, > 100 µM (inactive); with U-251 it was > 100 µM (inactive); in the assay with CCRF-CEM, 39.4 µM (inactive); with K562 it was 36.7 µM (inactive). Further, the GI50 in the assay on COLO 205 was > 100 µM (inactive); in the assay on TK-10, 98.6 µM (inactive); in the assay on UO-31, > 100 µM (inactive); in the assay with OVCAR-3, 91.4 µM (inactive); in the assay with KM12, 48.2 µM (inactive); in the assay with SF-295, 39.5 µM (inactive). Also, the GI50 is 61.5 µM (inactive) with OVCAR-4; > 100 µM (inactive) with HOP-92; 83 µM (inactive) in the assay on 786-0; 15.1 µM (inactive) with HOP-62; > 100 µM (inactive) with SN12C; 94 µM (inactive) in the assay with MDA-N. Further, in the assay with T47D, the GI50 is 90.2 µM (inactive).
For `COc1ccc(/N=c2\ssc(C(=S)Nc3ccc(OC)cc3)c2S)cc1`, the GI50 in the assay with EKVX was > 100 µM (inactive); with HT-29, > 100 µM (inactive); in the assay on BT-549 it was > 100 µM (inactive); in the assay on U-251, 75.7 µM (inactive); with CCRF-CEM, 31.6 µM (inactive); in the assay with K562, 37.7 µM (inactive). In addition, the GI50 in the assay on COLO 205, in the assay on TK-10, with UO-31, in the assay on OVCAR-3, in the assay with KM12 and in the assay on SF-295 was > 100 µM (inactive) throughout. Moreover, the GI50 with OVCAR-4, with HOP-92, with 786-0, in the assay with HOP-62, with SN12C and with MDA-N was > 100 µM (inactive) throughout. The GI50 with T47D was > 100 µM (inactive).
